The record followed here is ChEMBL document CHEMBL1137818, “Structure and spasmolytic activity of eucalyptanoic acid from Eucalyptus camaldulensis var. obtusa and synthesis of its active derivative from oleanolic acid” (2002).

For assay [1], the system named is Jejunum. In words: Spasmolytic activity in rabbit jejunum assessed as inhibition of calcium influx-mediated spontaneous muscle contraction at 1 mg/mL after 30 mins. As to conditions: Oryctolagus cuniculus, 0.5 h. It is filed as functional.
Assay [2] has as its system Jejunum. In words: Spasmolytic activity in rabbit jejunum assessed as inhibition of K+-induced muscle contraction at 1 mg/mL after 30 mins. In kind it is functional. Conditions: Oryctolagus cuniculus, 0.5 h.

In general, inhibition refers to how much of the control response was suppressed.

As to `CC1(C)CC[C@]2(C(=O)O)CC[C@]3(C)C(=CC=C4[C@@]5(C)CC[C@H](O)C(C)(C)[C@@H]5CC[C@]43C)[C@H]2C1` [EUCALYPTANOIC ACID], the values for the inhibition at 1000 µg/mL in the assay with Jejunum [1] and with Jejunum [2] were 58.2% and 31.1%, respectively.

With `COC(=O)[C@]12CCC(C)(C)C[C@@H]1C1=CC[C@@H]3[C@@]4(C)CC[C@H](OC(C)=O)C(C)(C)[C@@H]4CC[C@@]3(C)[C@]1(C)CC2` [METHYL ACETYL OLEANOLATE], the inhibition at 1000 µg/mL in the assay with Jejunum [1] worked out at 67.7%; with Jejunum [2], 35.5%.

For the compound `COC(=O)[C@]12CCC(C)(C)C[C@@H]1C1=CC=C3[C@@]4(C)CC[C@H](OC(C)=O)C(C)(C)[C@@H]4CC[C@@]3(C)[C@]1(C)CC2` [METHYLACETYLEUCALYPTANOATE], the results for the inhibition at 1000 µg/mL with Jejunum [1] and in the assay on Jejunum [2] were 95.3% and 85.9%, respectively.
